Laboratory results reported in publication PMC12192077, “Leveraging Neural ODEs for Population Pharmacokinetics of Dalbavancin in Sparse Clinical Data” (Entropy, 2025).
Where two headings read alike, the source gives them in different places.

Columns and labels:
[1] = clinical; conditions: in vivo
Text: The dataset used in this study was collected from a cohort of 218 patients undergoing Dalbavancin treatment and who underwent therapeutic drug monitoring (TDM) of Dalbavancin at the IRCCS, Azienda Ospedaliero Universitaria di Bologna between April 2021 and December 2024. Dalbavancin is a long-acting antibiotic used for the treatment of skin and soft tissue infections and as a second-line agent in patients with staphylococcal infections, such as bone and joint infections, vascular prosthetic joint infections and endocarditis. At our center, Dalbavancin plasma exposure is optimized by means of TDM, which is the medical practice of measuring drug concentration in plasma in order to guide drug dosing for attaining a pre-defined target of efficacy. Dalbavancin is a semisynthetic lipoglycopeptide derived from the teicoplanin-like antibiotic A-40926, which is an agent naturally produced by the actinomycete Nonomuria spp. […] The long lipophilic side chain in the Dalbavancin molecule serves a dual purpose by both extending the half-life, as well as anchoring the compound to the membrane, which enhances its antimicrobial activity.
The data acquisition process involved recording patient covariates, drug administration details and serial blood sampling for pharmacokinetic analysis. Dalbavancin doses ranged from 350mg to 1500mg , with a total of 703 administrations recorded. Blood samples were obtained at various time points following drug administration, resulting in 669 concentration measurements. Standardized laboratory procedures were followed for quantifying Dalbavancin levels in plasma, ensuring accuracy and consistency across all samples.
To ensure robust model evaluation, we employed a cross-validation approach. Given the dataset size and the need for a balance between the training and validation data, we opted for a 6-fold cross-validation framework. This choice provides a good trade-off between statistical reliability and computational efficiency, allowing each model to be trained and validated on multiple subsets of the data while maintaining a sufficient amount of training data per fold.
Since the compartment models are systems of differential equations, the replacement of these equations with an NN is direct:(2a) dCc/dt=−CcCl/V1−CcQ/V1+CpQ/V2dCp/dt=CcQ/V1−CpQ/V2 (2b) dh(t)/dt=fnn(h(t),t;θ) The differential equation systems (2a) represent a simple two-compartment model with the four parameters that need to be fitted: V1 and V2 are the volumes of the central and peripheral compartments, Cl the clearance, Q the intercompartmental clearance and Cc and Cp the concentrations of the two compartments.
In addition to the main FNN, the model includes an additional parameter, the distribution volume ( VNODE ), which is learned through gradient descent with the whole FNN. […]

[2] = in vivo; cited from earlier work

clearance ([1]; human, Cl (clearance), SD): 0.9 mL/min
Cl (clearance) ([1]; human, SD): 0.0367 ± 0.0006 L/h
VNODE (distribution volume) [1]: 5.7 ± 0.1 L
VNODE,cov (distribution volume) ([1]; SD): 5.2 ± 0.8 L
SMILES: CN[C@H]1C(=O)N[C@@H]2Cc3ccc(cc3)Oc3cc4cc(c3O[C@@H]3O[C@H](C(=O)O)[C@@H](O)[C@H](O)[C@H]3NC(=O)CCCCCCCCC(C)C)Oc3ccc(cc3Cl)[C@@H](O)[C@@H]3NC(=O)[C@H](NC(=O)[C@@H]4NC(=O)[C@@H](NC2=O)c2cc(cc(O)c2Cl)Oc2cc1ccc2O)c1ccc(O)c(c1)-c1c(O[C@H]2O[C@H](CO)[C@@H](O)[C@H](O)[C@@H]2O)cc(O)cc1[C@@H](C(=O)NCCCN(C)C)NC3=O [Dalbavancin]
Cl (clearance) [2]: 0.031 ± 0.004 L/h
Q (intercompartmental clearance) [2]: 0.038 ± 0.013 L/h
V1 (volume of central compartment) [2]: 5.9 ± 0.3 L
V2 (volume of peripheral compartment) [2]: 9.6 ± 1.4 L
